Source: PMC3049939 (Chemical science (Royal Society of Chemistry : 2010), 2011)

Test system: porcine liver esterase (PLE)
Experiment: fluorogenic hydrolysis, Michaelis-Menten fit
Assay type: biochemical, Sus scrofa
Conditions: HEPES pH 7.4, 23 ± 2 °C, DMSO up to 1.5% v/v

Tokyo green acetoxymethyl ether [compound 6]
Km: 13 µM

Tokyo Green acetate [compound 7]
Km: 12 µM

CC(=O)Oc1ccc2c(c1)Oc1cc(OC(C)=O)ccc1C21OC(=O)c2ccccc21 [2a, fluorescein diacetate]
Km (two ester groups per molecule): 11 µM

CC(=O)OCOc1ccc2nc3ccc(=O)cc-3oc2c1 [compound 9, Resorufin acetoxymethyl ether]
Km: 21 µM

CC(=O)Oc1ccc2nc3ccc(=O)cc-3oc2c1 [compound 10, resorufin acetate]
Km: 16 µM
